{"source": "paper PMC4244111", "about": "“Structure of Putrescine Aminotransferase from Escherichia coli Provides Insights into the Substrate Specificity among Class III Aminotransferases” (PLoS ONE, 2014)", "target": "T1, YgjG (Escherichia coli, UniProt P42588)", "T1 construct": "gene patA; full-length, C-terminal His6 tag, expressed in E. coli B834(DE3); homodimer; seven N-terminal and one C-terminal residues not visible", "T1 sequence (P42588 whole entry)": "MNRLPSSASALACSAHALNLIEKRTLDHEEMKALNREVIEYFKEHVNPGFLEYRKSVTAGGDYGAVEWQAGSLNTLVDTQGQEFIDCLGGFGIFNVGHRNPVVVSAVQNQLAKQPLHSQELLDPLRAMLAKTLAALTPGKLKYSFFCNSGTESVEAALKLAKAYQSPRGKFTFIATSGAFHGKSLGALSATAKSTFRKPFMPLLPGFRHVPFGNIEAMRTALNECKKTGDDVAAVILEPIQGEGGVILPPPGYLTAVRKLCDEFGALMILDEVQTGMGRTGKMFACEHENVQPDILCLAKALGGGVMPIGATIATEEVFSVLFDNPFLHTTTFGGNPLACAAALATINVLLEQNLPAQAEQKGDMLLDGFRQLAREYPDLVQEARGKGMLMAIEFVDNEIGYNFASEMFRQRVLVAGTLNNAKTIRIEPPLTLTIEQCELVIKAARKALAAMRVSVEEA", "experiment": "X-ray crystallography, […] Å", "assay_type": "binding", "conditions": "crystal pH 7.5; covalent, Schiff base with Lys300; active site at dimer interface"}
{"molecule": "Cc1ncc(COP(=O)(O)O)c(C=O)c1O", "note": "[pyridoxal-5′-phosphate]", "values": [{"measurement": "X-ray crystallography, 2.3 Å", "result": "PLP is covalently linked to the strictly conserved lysine residue (Lys300) via a Schiff base linkage"}]}
